Earlier results on one molecule are cited in article PMC3322358 (Chemistry & biology, 2008).

Molecules are shown by their SMILES.

The data set deals with CFTR. Particulars: ref Muanprasat et al., 2004.

Take `O=C(CNc1ccc2ccccc2c1)N/N=C/c1cc(Br)c(O)c(Br)c1O` [GlyH-101]: the “time constant of CFTR channel block” value was 8 to 10 ms.
